Laboratory results: patent US20220008542A1, “ANTI-PROTOZOAL COMPOUNDS AND USES THEREOF” (AUBURN UNIVERSITY, priority 2017, published 2022)
Like-named read-outs stand apart in the source and are kept apart here.

Key:
T. foetus trophozoites [1] = test: Example 1: T. foetus trophozoites in culture tubes, surviving organisms counted by hemocytometer, re-culture at 12 hours; format: cell-based, Tritrichomonas foetus; conditions: for inhibition of parasite growth: PO 75 mg mL^-1, OX 50 mg mL^-1, compound alone; for reduction in motile organisms: after 2 hours of culture, compound alone; for motile organisms after re-culture: re-culture at 12 hours, examination at 24 hours
Experimental: (§1) Experiments were performed in vitro using pure cultures of T. foetus trophozoites with the addition of i) an antiprotozoal compound alone or ii) a veterinary formulation comprising an antiprotozoal compound and a polymer. Samples were evaluated at predetermined time points using Neubauer hemocytometers (C-Chip® NanoEnTek Inc., Pleasanton, Calif.) to determine the number of viable organisms and the induction of the pseudocyst form. Cultures were tested for reversibility to the motile trophozoite form or replication of organisms.
(§2) The CDTf3 cloned strain of T. foetus was utilized for the instant examples. The parasites were cultivated in trypticase-yeast extract-maltose (TYM) Diamond's medium (DM) and supplemented with 10% heat-inactivated fetal bovine serum (Atlanta Biologics, Norcross, Ga.) at 37° C. for 24-48 hours until adequate numbers of trichomonads were present to perform the required number of replications. Following culture, T. foetus organisms were washed and re-suspended in 1 mL of sterile phosphate buffered saline (PBS) and then inoculated into 15 mL conical tubes (BD Falcon, Franklin Lakes, N.J.) or tissue culture wells (Sarstedt, Inc., Newton, N.C.) containing DM.
Trophozoites (3.75×10^5 mL^−1) were washed in PBS (VWR, Radnor, Pa.) and inoculated into 10 mL of fresh DM. At time 0, each of the following treatment groups was added to culture tubes: Group 1) control: 0.5 mL DM; Group 2) 0.5 mL pluronic lecithin organogel (PLO; Pluronic F127); Group 3) 75 mg ponazuril (PO) (0.5 mL); Group 4) 50 mg oxibendazole (OX) (0.5 mL); Group 5) 37.5 mg PO (0.25 mL)+0.25 mL PLO; and Group 6) 25 mg OX (0.25 mL)+0.25 mL PLO.
PLO (Pluronic F127 Letco Medical, Decatur, Ala.) was combined with OX (Anthelcide EQ® Zoetis, Florham Park, N.J.) or PO (Marquis® Merial, Duluth, Ga.) paste formulations by shear force, syringe-to-syringe-blending using two luer-lock syringes and a rapid fill connector (Baxter, Inglewood, Calif.). Each treatment was applied to conical culture tubes in 5 replicates. Following growth at 37° C., samples were taken every 2 hours for a total of 12 hours, and the tubes were vortexed prior to removal of a 20 μL sample. From these samples, the surviving organisms were counted utilizing disposable Neubauer hemocytometers (C-Chip® NanoEnTek Inc., Pleasanton, Calif.). At 12 hours post-treatment, each formulation was recultured in fresh DM without antiprotozoal compound and evaluated microscopically daily for the presence of T. foetus organisms in culture. These assays were performed in order to evaluate if the effects exerted by the antiprotozoal compounds could be reversed.

T. foetus trophozoites [2] = test: Example 3: T. foetus trophozoites in tissue culture wells, 5 passages (120 hours), re-emergence of organisms; format: cell-based, Tritrichomonas foetus; conditions: for subsequent cultures: over a 5 day period
Experimental: as §1, §2
Trophozoites (5×10^4 mL^−1) were cultured as described above and added to all tissue culture wells along with 3 mL of DM for a total volume of 4 mL of DM with 50,000 organisms per well. At time 0, each of the following treatment groups were added to tissue culture wells as follows: Group 1) positive control 4 mL DM; Group 2) negative control 4 mL 70% ethanol (EtOH); Group 3) 150 mg oxfendazole solution (OXF) (1 mL)+2 mL Velvachol (VC)+1 mL PLO; Group 4) 150 mg OXF (1 mL)+3 mL VC; Group 5) 150 mg OXF (1 mL)+3 mL EtOH; Group 6) 150 mg OXF (1 mL)+2 mL EtOH+1 mL PLO; Group 7) 1 mL EtOH+2 mL VC+1 mL PLO; Group 8) 1 mL EtOH+3 mL VC; Group 9) 3 mL EtOH+1 mL PLO; Group 10) 4 mL EtOH; Group 11) 4 mL VC; Group 12) 150 mg oxfendazole dissolved in 4 mL 99% DMSO; and Group 13) 4 mL 99% DMSO.
The OXF (U.S. Pharmacopeial Convention Rockville, Md.) stock solution was made in EtOH (Humco Texarkana, TX) and stored at 150 mg mL^−1, with the exception of Formulation 13 which included OXF dissolved in 99% DMSO (VedCo, Saint Joseph, Mo.). The combinations of PLO (Pluronic F127 Letco Medical, Decatur, Ala.), VC (Valeant North America LLC, Bridgewater, N.J.), EtOH (Humco Texarkana, TX), and OXF stock solution were mixed as described above.
Each treatment was applied to tissue culture wells in duplicate. Following culture as described in Example 2, samples were collected every 8 hours for a total of 24 hours and counted as previously described. At 24 hours post-treatment and following counting of organisms, each formulation was removed from the tissue culture well and centrifuged at 4000 g for 10 minutes. The supernatant was removed and placed in a labeled vial for evaluation of drug concentration at a later time. The pellet was re-suspended in 4 mL of DM and placed once again in a tissue culture well before being re-incubated at 37° C. This process was repeated every 24 hours for 5 passages (120 hours) to allow for re-emergence of any organisms. Assays were continued to be microscopically examined during this period for the presence of T. foetus organisms in culture by counting of live organisms.

## CCCOc1ccc2nc(NC(=O)OC)[nH]c2c1 [OX, methyl (5-propoxy-1H-benzimidazol-2-yl)carbamate]
T. foetus trophozoites [1]
  inhibition of parasite growth: significantly inhibited parasite growth
  reduction in motile organisms: 98%
  motile organisms after re-culture: reestablishment of motile organisms was observed

## Cc1cc(-n2c(=O)[nH]c(=O)n(C)c2=O)ccc1Oc1ccc(S(=O)(=O)C(F)(F)F)cc1 [PO, 1-Methyl-3-(3-methyl-4-(4-((trifluoromethyl)sulfonyl)phenoxy)phenyl)-1,3,5-triazinane-2,4,6-trione]
T. foetus trophozoites [1]
  inhibition of parasite growth: significantly inhibited parasite growth
  reduction in motile organisms: 98%
  motile organisms after re-culture: reestablishment of motile organisms was observed

## C[S+](C)[O-] [DMSO]
T. foetus trophozoites [2]
  surviving organisms / form seen, 8 hours post-incubation: dead trophs
  surviving organisms / form seen, 16 hours post-incubation: dead trophs
  surviving organisms / form seen, 24 hours post-incubation: dead trophs
  surviving organisms / form seen, 48 hours post-incubation: dead trophs
  surviving organisms / form seen, 72 hours post-incubation: dead trophs
  surviving organisms / form seen, 96 hours post-incubation: no cells
  surviving organisms / form seen, 120 hours post-incubation: no cells
  subsequent cultures: negative cultures
T. foetus trophozoites [2]; listed as 99% DMSO
  death of trophozoites: capable of inducing death of trophozoites

## CCO [EtOH, ethanol]
T. foetus trophozoites [2]
  death of trophozoites: capable of inducing death of trophozoites
  surviving organisms / form seen, 8 hours post-incubation: dead trophs
  surviving organisms / form seen, 16 hours post-incubation: dead trophs
  surviving organisms / form seen, 24 hours post-incubation: dead trophs
  surviving organisms / form seen, 48 hours post-incubation: dead trophs
  surviving organisms / form seen, 72 hours post-incubation: dead trophs
  surviving organisms / form seen, 96 hours post-incubation: no cells
  surviving organisms / form seen, 120 hours post-incubation: no cells
  subsequent cultures: negative cultures
